Reference: publication PMC6713262 (Cell, 2019)

Tests used:
Type in all cases: cell-based
[1] = biological target: CB2 (Homo sapiens, UniProt P34972); experiment: β-arrestin2 recruitment assay; conditions: for Emax (fold): CB2 β-arrestin2; for EC50: EC50, CB2 β-arrestin2
[2] = biological target: CB1 (Homo sapiens, UniProt P21554); experiment: β-arrestin2 recruitment assay at CB1; conditions: for Emax (fold): CB1 β-arrestin2
[3] = biological target: CB2 R242E (Homo sapiens, UniProt P34972, R242E); experiment: Receptor activity at CB2 stabilizing point mutant R242E
Chain of CB2 R242E (P34972 whole entry R242E): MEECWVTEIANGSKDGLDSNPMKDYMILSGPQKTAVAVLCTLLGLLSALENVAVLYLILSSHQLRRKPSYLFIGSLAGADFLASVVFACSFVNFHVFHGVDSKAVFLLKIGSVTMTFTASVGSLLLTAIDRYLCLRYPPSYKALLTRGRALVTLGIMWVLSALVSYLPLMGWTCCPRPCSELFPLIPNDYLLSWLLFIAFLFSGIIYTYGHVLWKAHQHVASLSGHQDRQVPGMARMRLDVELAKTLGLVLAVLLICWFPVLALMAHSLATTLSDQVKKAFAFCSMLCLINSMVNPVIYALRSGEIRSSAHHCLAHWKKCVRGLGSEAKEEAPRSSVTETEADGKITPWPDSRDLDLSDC

[4] = biological target: CB2 T153L (Homo sapiens, UniProt P34972, T153L); experiment: Receptor activity at CB2 stabilizing point mutant T153L
Chain of CB2 T153L (P34972 whole entry T153L): as the sequence (P34972 whole entry R242E) above, with T153L, E242R counted along it

[5] = biological target: CB2 G78L (Homo sapiens, UniProt P34972, G78L); experiment: Receptor activity at CB2 stabilizing point mutant G78L
Chain of CB2 G78L (P34972 whole entry G78L): as the sequence (P34972 whole entry R242E) above, with G78L, E242R counted along it

[6] = biological target: CB2 G304E (Homo sapiens, UniProt P34972, G304E); experiment: Receptor activity at CB2 stabilizing point mutant G304E
Chain of CB2 G304E (P34972 whole entry G304E): as the sequence (P34972 whole entry R242E) above, with E242R, G304E counted along it

[7] = biological target: wild-type CB2 (Homo sapiens, UniProt P34972); experiment: Forskolin-stimulated cAMP accumulation
Chain of wild-type CB2 (P34972 whole entry): as the sequence (P34972 whole entry R242E) above, with E242R counted along it

[8] = biological target: CB2 T127A (Homo sapiens, UniProt P34972, T127A); experiment: Receptor activity at CB2 stabilizing point mutant T127A
Chain of CB2 T127A (P34972 whole entry T127A): as the sequence (P34972 whole entry R242E) above, with T127A, E242R counted along it

Chain of CB2 (P34972 whole entry): as the sequence (P34972 whole entry R242E) above, with E242R counted along it
Chain of CB1 (P21554 whole entry): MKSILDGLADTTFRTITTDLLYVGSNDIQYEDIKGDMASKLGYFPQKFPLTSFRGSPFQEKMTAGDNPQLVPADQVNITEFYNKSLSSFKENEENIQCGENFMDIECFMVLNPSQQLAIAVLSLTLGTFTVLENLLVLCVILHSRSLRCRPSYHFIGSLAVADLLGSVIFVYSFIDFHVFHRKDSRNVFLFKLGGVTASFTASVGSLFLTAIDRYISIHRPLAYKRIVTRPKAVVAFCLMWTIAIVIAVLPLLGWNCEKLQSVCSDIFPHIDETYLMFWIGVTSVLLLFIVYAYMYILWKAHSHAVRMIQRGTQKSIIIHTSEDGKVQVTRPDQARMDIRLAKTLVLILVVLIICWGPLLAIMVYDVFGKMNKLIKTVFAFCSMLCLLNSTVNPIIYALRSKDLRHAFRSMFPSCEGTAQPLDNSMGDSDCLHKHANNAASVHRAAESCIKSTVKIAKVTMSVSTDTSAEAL

SMILES	Functional profile at CB2 (β-arrestin2 recruitment) [1]	Emax (fold) ([1]; Figure 6C)	EC50 ([1]; Figure 6C)	EC50 [2]	Functional profile at CB1 (β-arrestin2 recruitment) [2]	Emax (fold) ([2]; Figure 6D)	IC50 [3]	Emax (fold) ([1]; Figure 1C)	EC50 ([1]; Figure 1C)	IC50 [4]	IC50 [5]	IC50 [6]	IC50 [7]	Kb [7]	Functional profile at CB2 (adenylyl cyclase assay) ([7]; against CP55,940, Figure 1B)	IC50 [8]	Emax (fold) ([2]; Figure 5C)
CC(=O)OCCn1c(C)c(C)sc1=NC(=O)C1C(C)(C)C1(C)C [MRI2594, 2-(4,5-dimethyl-2-((2,2,3,3-tetramethylcyclopropane-1-carbonyl)imino)thiazol-3(2H)-yl)ethyl acetate]	agonist	2.0 ± 0.2 fold	0.17 ± 0.03 nM	310 ± 54 nM	agonist	28.0 ± 2.0 fold	–	–	–	–	–	–	–	–	–	–	–
Cc1c(C(=O)NC23CC4CC(CC(C4)C2)C3)nn(CCCCCO)c1-c1ccccc1 [AM10257, 1-(5-Hydroxypentyl)-4-methyl-5-phenyl-N-tricyclo[3.3.1.1^3,7]dec-1-yl-1H-pyrazole-3-carboxamide]	competitive antagonist/inverse agonist	–	0.2 ± 0.04 nM	51.5 ± 7.4 nM	partial agonist	–	46.7 ± 11.3 nM	0.70 ± 0.05 fold	0.53 ± 0.29 nM	46.2 ± 4.6 nM	59.7 ± 8.1 nM	32.1 ± 6.2 nM	35.9 ± 3.2 nM	5.01 nM	competitive antagonist/inverse agonist	40.1 ± 4.5 nM	2.4 ± 0.1 fold
CC(=O)OCCn1c(=NC(=O)C2C(C)(C)C2(C)C)sc2cc(C)ccc21 [MRI2687, 2-(6-methyl-2-((2,2,3,3-tetramethylcyclopropane-1-carbonyl)imino)benzo[d]thiazol-3(2H)-yl)ethyl acetate]	inverse agonist	0.75 ± 0.04 fold	0.24 ± 0.06 nM	114 ± 15 nM	partial agonist	6.0 ± 0.3 fold	–	–	–	–	–	–	–	–	–	–	–
